Drawing on BindingDB's records for doi:10.7270/Q2M0441T (Dalhousie University, 1989), this text covers IC50 for 4 compounds.

This assay has as its target T1, Phosphatidylcholine-sterol acyltransferase (Homo sapiens, UniProt P04180).
T1 sequence (P04180 whole entry): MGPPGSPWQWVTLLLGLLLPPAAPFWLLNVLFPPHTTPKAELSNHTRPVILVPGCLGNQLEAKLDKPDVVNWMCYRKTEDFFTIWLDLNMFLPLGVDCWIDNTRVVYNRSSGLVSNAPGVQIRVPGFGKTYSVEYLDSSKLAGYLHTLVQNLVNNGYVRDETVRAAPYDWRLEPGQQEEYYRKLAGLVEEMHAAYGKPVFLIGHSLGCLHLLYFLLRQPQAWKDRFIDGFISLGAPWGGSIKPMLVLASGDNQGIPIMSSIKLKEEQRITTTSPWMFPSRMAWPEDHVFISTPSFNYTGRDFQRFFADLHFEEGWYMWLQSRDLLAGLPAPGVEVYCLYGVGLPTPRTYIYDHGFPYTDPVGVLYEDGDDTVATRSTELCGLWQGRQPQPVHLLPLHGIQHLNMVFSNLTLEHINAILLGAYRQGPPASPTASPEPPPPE
The assay can be described thus: Enzyme Assay. The conditions noted are these: pH 7.5; 4 °C. The procedure:
The phospholipase A2 activity of LCAT was assayed using lecithin and apoA-I containing [9,10-3H] dipalmitoylphosphatidylcholine (DPPC) and measurement of the radioactive fatty acid released from the sn-2-position.

Bounds are passed on as bounds.

In the case of `CCCCCCCC(=O)C(F)(F)CCOP(=O)([O-])OCC[N+](C)(C)C` [Difluoroketone phospholipid analogue, 1], the IC50 is greater than 0.5 µM.

Turning to `CCCCCCCCOCC(COP(=O)([O-])OCC[N+](C)(C)C)C(F)(F)C(=O)CCCCCCC` (centres undefined) [Difluoroketone phospholipid analogue, 2], the 50% inhibitory concentration (IC50) stood at 0.06 µM.

For the compound `CCCCCCCCCCCCCCCCC(=O)C(F)(F)C(COCCCCCCCC)COP(=O)([O-])OCC[N+](C)(C)C` (centres undefined) [Difluoroketone phospholipid analogue, 3], the midpoint of inhibition, the IC50, lay at 0.028 µM.

The compound `CCCCCCCC(=O)OCC(COP(=O)([O-])OCC[N+](C)(C)C)CC(=O)C(F)(F)CCCCCC` (centres undefined) [Difluoroketone phospholipid analogue, 4] displayed an IC50 of 0.06 µM.
